Measurements reported in patent US6358885B1, “Substituted phenylheterocyclic herbicides” (Mississippi State University, priority 1992, dated 2002).

Tests used:
Assay in all cases: Test G preemergence/postemergence greenhouse plant response rating 0 to 100
alfalfa = format: in vivo, Medicago ativa; conditions: 0 to 100 scale
From the text: (§1) Seeds, rhizomes, or plant parts of alfalfa (Medicago ativa), annual bluegrass (Poa annua), bermudagrass (Cynodon dactylon), broadleaf signalgrass (Brachiaria plantaginea), common purslane (Portulaca oleracea), common ragweed (Ambrosia elatior), […] (Paspalum dilatatum), goosegrass (Eleusine indica), guineagrass (Panicum maximum), […] exaltata), johnsongrass (Sorghum halepense), large crabgrass (Digitaria sanguinalis), peanut (Arachis hypoagaea), pitted morningglory (Ipomoea lacunosa), purple nutsedge (Cyperus rotundus), sandbur (Cenchrus echinatus), smooth crabgrass (Digitaria ischaemum) and yellow nutsedge (Cyperus esculentus) were planted into greenhouse pots containing greenhouse planting medium. Each pot contained only one plant species. The test compound was dissolved in a non-phytotoxic solvent and applied preemergence and/or postemergence to the plants. Preemergence applications were made within one day of planting the seeds or plant parts. Postemergence applications were applied when the plants were in the two to four leaf stage (three to twenty cm). Test chemicals were dissolved in a non-phytotoxic solvent and applied preemergence and postemergence to the plants. Untreated control plants and treated plants were placed in the greenhouse and visually evaluated for injury at 13 to 21 days after herbicide application. […] A dash (-) response indicates no test result.

annual bluegrass = format: in vivo, Poa annua; conditions: 0 to 100 scale
From the text: as §1

bermudagrass = format: in vivo, Cynodon dactylon; conditions: 0 to 100 scale
From the text: as §1

broadleaf signalgrass = format: in vivo, Brachiaria plantaginea; conditions: 0 to 100 scale
From the text: as §1

common purslane = format: in vivo, Portulaca oleracea; conditions: 0 to 100 scale
From the text: as §1

common ragweed = format: in vivo, Ambrosia elatior; conditions: 0 to 100 scale
From the text: as §1

goosegrass = format: in vivo, Eleusine indica; conditions: 0 to 100 scale
From the text: as §1

guineagrass = format: in vivo, Panicum maximum; conditions: 0 to 100 scale
From the text: as §1

itchgrass = format: in vivo, Rottboellia exaltata; conditions: 0 to 100 scale
From the text: as §1

johnsongrass = format: in vivo, Sorghum halepense; conditions: 0 to 100 scale
From the text: as §1

large crabgrass = format: in vivo, Digitaria sanguinalis; conditions: 0 to 100 scale
From the text: as §1

peanut = format: in vivo, Arachis hypoagaea; conditions: 0 to 100 scale
From the text: as §1

pitted morningglory = format: in vivo, Ipomoea lacunosa; conditions: 0 to 100 scale
From the text: as §1

sandbur = format: in vivo, Cenchrus echinatus; conditions: 0 to 100 scale
From the text: as §1

smooth crabgrass = format: in vivo, Digitaria ischaemum; conditions: 0 to 100 scale
From the text: as §1

yellow nutsedge = format: in vivo, Cyperus esculentus; conditions: Rate 125 g/ha, 0 to 100 scale
From the text: as §1

SMILES: CCCOc1cc(-c2nn3c(c2Cl)CCCC3)c(F)cc1Cl [Compound 23]
- Plant response rating, Alfalfa Var. (alfalfa; POSTEMERGENCE, Rate 125 g/ha): 0
- Plant response rating, Alfalfa Var. (alfalfa; POSTEMERGENCE, Rate 250 g/ha): 0
- Plant response rating, Alfalfa Var. (alfalfa; PREEMERGENCE, Rate 125 g/ha): 0
- Plant response rating, Alfalfa Var. (alfalfa; PREEMERGENCE, Rate 250 g/ha): 0
- Plant response rating, Ann Bluegrass (annual bluegrass; POSTEMERGENCE, Rate 125 g/ha): 0
- Plant response rating, Ann Bluegrass (annual bluegrass; POSTEMERGENCE, Rate 250 g/ha): 0
- Plant response rating, Ann Bluegrass (annual bluegrass; PREEMERGENCE, Rate 125 g/ha): 0
- Plant response rating, Ann Bluegrass (annual bluegrass; PREEMERGENCE, Rate 250 g/ha): 0
- Plant response rating, Bermudagrass (bermudagrass; POSTEMERGENCE, Rate 125 g/ha): 0
- Plant response rating, Bermudagrass (bermudagrass; POSTEMERGENCE, Rate 250 g/ha): 0
- Plant response rating, Bermudagrass (bermudagrass; PREEMERGENCE, Rate 125 g/ha): 0
- Plant response rating, Bermudagrass (bermudagrass; PREEMERGENCE, Rate 250 g/ha): 50
- Plant response rating, Brdlf Sgnlgrass (broadleaf signalgrass; POSTEMERGENCE, Rate 125 g/ha): 0
- Plant response rating, Brdlf Sgnlgrass (broadleaf signalgrass; POSTEMERGENCE, Rate 250 g/ha): 0
- Plant response rating, Brdlf Sgnlgrass (broadleaf signalgrass; PREEMERGENCE, Rate 125 g/ha): 0
- Plant response rating, Brdlf Sgnlgrass (broadleaf signalgrass; PREEMERGENCE, Rate 250 g/ha): 0
- Plant response rating, Cmn Purslane (common purslane; POSTEMERGENCE, Rate 125 g/ha): 70
- Plant response rating, Cmn Purslane (common purslane; POSTEMERGENCE, Rate 250 g/ha): 50
- Plant response rating, Cmn Purslane (common purslane; PREEMERGENCE, Rate 125 g/ha): 0
- Plant response rating, Cmn Purslane (common purslane; PREEMERGENCE, Rate 250 g/ha): 100
- Plant response rating, Cmn Ragweed (common ragweed; POSTEMERGENCE, Rate 125 g/ha): 60
- Plant response rating, Cmn Ragweed (common ragweed; POSTEMERGENCE, Rate 250 g/ha): 20
- Plant response rating, Cmn Ragweed (common ragweed; PREEMERGENCE, Rate 125 g/ha): 0
- Plant response rating, Cmn Ragweed (common ragweed; PREEMERGENCE, Rate 250 g/ha): 0
- Plant response rating, Goosegrass (goosegrass; POSTEMERGENCE, Rate 125 g/ha): 0
- Plant response rating, Goosegrass (goosegrass; POSTEMERGENCE, Rate 250 g/ha): 0
- Plant response rating, Goosegrass (goosegrass; PREEMERGENCE, Rate 125 g/ha): 90
- Plant response rating, Goosegrass (goosegrass; PREEMERGENCE, Rate 250 g/ha): 40
- Plant response rating, Guineagrass (guineagrass; POSTEMERGENCE, Rate 125 g/ha): 0
- Plant response rating, Guineagrass (guineagrass; POSTEMERGENCE, Rate 250 g/ha): 0
- Plant response rating, Guineagrass (guineagrass; PREEMERGENCE, Rate 125 g/ha): 0
- Plant response rating, Guineagrass (guineagrass; PREEMERGENCE, Rate 250 g/ha): 0
- Plant response rating, Itchgrass (itchgrass; POSTEMERGENCE, Rate 125 g/ha): 0
- Plant response rating, Itchgrass (itchgrass; POSTEMERGENCE, Rate 250 g/ha): 0
- Plant response rating, Itchgrass (itchgrass; PREEMERGENCE, Rate 125 g/ha): 0
- Plant response rating, Itchgrass (itchgrass; PREEMERGENCE, Rate 250 g/ha): 0
- Plant response rating, Johnsongrass (johnsongrass; POSTEMERGENCE, Rate 125 g/ha): 0
- Plant response rating, Johnsongrass (johnsongrass; POSTEMERGENCE, Rate 250 g/ha): 0
- Plant response rating, Johnsongrass (johnsongrass; PREEMERGENCE, Rate 125 g/ha): 0
- Plant response rating, Johnsongrass (johnsongrass; PREEMERGENCE, Rate 250 g/ha): 0
- Plant response rating, Large Crabgrass (large crabgrass; POSTEMERGENCE, Rate 125 g/ha): 0
- Plant response rating, Large Crabgrass (large crabgrass; POSTEMERGENCE, Rate 250 g/ha): 0
- Plant response rating, Large Crabgrass (large crabgrass; PREEMERGENCE, Rate 125 g/ha): 0
- Plant response rating, Large Crabgrass (large crabgrass; PREEMERGENCE, Rate 250 g/ha): 70
- Plant response rating, Peanuts (peanut; POSTEMERGENCE, Rate 125 g/ha): 0
- Plant response rating, Peanuts (peanut; POSTEMERGENCE, Rate 250 g/ha): 0
- Plant response rating, Peanuts (peanut; PREEMERGENCE, Rate 125 g/ha): 0
- Plant response rating, Peanuts (peanut; PREEMERGENCE, Rate 250 g/ha): 0
- Plant response rating, Pit Morninglory (pitted morningglory; POSTEMERGENCE, Rate 125 g/ha): 0
- Plant response rating, Pit Morninglory (pitted morningglory; POSTEMERGENCE, Rate 250 g/ha): 0
- Plant response rating, Pit Morninglory (pitted morningglory; PREEMERGENCE, Rate 125 g/ha): 0
- Plant response rating, Pit Morninglory (pitted morningglory; PREEMERGENCE, Rate 250 g/ha): 0
- Plant response rating, S. Sandbur (sandbur; POSTEMERGENCE, Rate 125 g/ha): 0
- Plant response rating, S. Sandbur (sandbur; POSTEMERGENCE, Rate 250 g/ha): 0
- Plant response rating, S. Sandbur (sandbur; PREEMERGENCE, Rate 125 g/ha): 0
- Plant response rating, S. Sandbur (sandbur; PREEMERGENCE, Rate 250 g/ha): 0
- Plant response rating, Smooth Crabgras (smooth crabgrass; POSTEMERGENCE, Rate 125 g/ha): 0
- Plant response rating, Smooth Crabgras (smooth crabgrass; POSTEMERGENCE, Rate 250 g/ha): 0
- Plant response rating, Smooth Crabgras (smooth crabgrass; PREEMERGENCE, Rate 125 g/ha): 0
- Plant response rating, Smooth Crabgras (smooth crabgrass; PREEMERGENCE, Rate 250 g/ha): 20
- Plant response rating, Yellow Nutsedge (yellow nutsedge; POSTEMERGENCE): 0
- Plant response rating, Yellow Nutsedge (yellow nutsedge; PREEMERGENCE): 0
